This is an account of results in patent publication US6887846B2, “Antimicrobial amino acid sequences derived from alpha-melanocyte-stimulating hormone” (priority 1999, dated 2005).

Entries after “also recorded” stand apart in the source; their conditions may differ.

The test system of one test is S. aureus (ATCC 29213). The test can be described thus: Trial of melanocortin peptides on S. aureus viability (colony formation). Format: cell-based. The following applies: peptide 10^−15 to 10^−4M, 2 hours at 37° C., compared to controls. The protocol:
S. aureus (ATCC 29213) and C. albicans (clinical isolate) were obtained from the collection of the Department of Microbiology, Ospedale Maggiore di Milano. C. albicans were maintained on Sabouraud'[…] periodically transferred to Sabouraud's agar plates and incubated for 48 hours at 28° C. To prepare stationary growth phase yeast, a colony was taken from the agar plate and transferred into 30 ml Sabouraud-dextrose broth and incubated for 72 hours at 32° C. Cells were centrifuged at 1000×g for 10 minutes and the pellet was washed twice with distilled water. Cells were counted and suspended in Hank's balanced salt solution (“HBSS”) to the desired concentration. Viability, determined by the exclusion of 0.01% methylene blue, remained >98%. […] Cells were then washed in cold distilled water and diluted with HBSS to a concentration of 100 organisms/ml. One ml aliquots were dispensed on blood agar plates and incubated for 24 hours at 37° C. Organism viability was estimated from the number of colonies formed.

The test system of the next test is S. aureus. The test can be described thus: Influence on urokinase-induced growth enhancement of S. aureus. Type of test: cell-based. The following applies: peptide 10^−6M, urokinase 500 U, 4 hours at 37° C.; p<0.001 vs urokinase alone. From the text: In experiments on S. aureus we determined the influence of α-MSH on urokinase-induced growth-enhancement. Hart, D. A., Loule, T., Krulikl, W., Reno, C., Staphylococcus Aureus Strains Differ in Their in Vitro Responsiveness to Human Urokinase: Evidence That Methicillin-resistant Strains Are Predominantly Nonresponsive to the Growth-enhancing Effects of Urokinase, Can. J. Microbiol. 42, 1024-31 (1966). […] Appropriate dilutions of S. aureus were dispensed on agar plates and colonies counted after 24 hours incubation at 37° C.

Test [1] deals with C. albicans (clinical isolate). The test can be described thus: Trial of melanocortin peptides on C. albicans viability (colony formation). The following applies: for C. albicans colony forming units (CFU): peptide 10^−15 to 10^−4M, 2 hours at 37° C., compared to controls; for reduction of C. albicans CFU at higher concentrations: up to 10^-4M. Type of test: cell-based. How it is done:
S. aureus (ATCC 29213) and C. albicans (clinical isolate) were obtained from the collection of the Department of Microbiology, Ospedale Maggiore di Milano. C. albicans were maintained on Sabouraud'[…] periodically transferred to Sabouraud's agar plates and incubated for 48 hours at 28° C. To prepare stationary growth phase yeast, a colony was taken from the agar plate and transferred into 30 ml Sabouraud-dextrose broth and incubated for 72 hours at 32° C. Cells were centrifuged at 1000×g for 10 minutes and the pellet was washed twice with distilled water. Cells were counted and suspended in Hank's balanced salt solution (“HBSS”) to the desired concentration. […] Cells were then washed in cold distilled water and diluted with HBSS to a concentration of 100 organisms/ml. One ml aliquots were dispensed on blood agar plates and incubated for 48 hours at 37° C. Organism viability was estimated from the number of colonies formed. […] There were at least six replicates for each concentration of peptide. […] The reaction was stopped after 3 minutes by the addition of ice cold ethanol. cAMP was measured in duplicate using a commercial enzyme immunoassay (EIA) kit (Amersham, United Kingdom) after extraction via the liquid-phase method according to manufacturer's instructions.

Test [2] has as its system C. albicans killing by human neutrophils. The test can be described thus: Trial of α-MSH peptides on C. albicans killing by human neutrophils. Type of test: cell-based. The following applies: 2 hours at 37° C., vs medium alone. How it is done:
Venous blood (20 ml) from healthy volunteers was anticoagulated with heparin. Neutrophils were isolated using dextran sedimentation and Ficoll-Hypaque (Sigma Chemical Co., St. Louis, Mo., USA) centrifugation. Erythrocytes were lysed via hypotonic shock. Neutrophils represented at least 97% of the cell suspension. Cell viability, estimated by trypan blue exclusion, was >98%. Neutrophils were suspended to final concentration in HBSS. […] After incubation, the culture tubes were placed on ice to stop growth and extracellular organisms were washed twice with centrifugation at 1000×g at 4° C. A 2.5% sodium desoxycholate solution was added to the suspension and the tubes were shaken for 5 min. Cold distilled water was added to obtain a suspension of 10^6 cells/ml. Two 1/100 serial dilution in HBSS were made to obtain a final suspension of 100 cells/ml. Aliquots of 1 ml were dispensed on blood agar plates and incubated for 48 hours at 37° C. Colony forming units (“CFU”) were counted at the end of the incubation period. Experiments were run in triplicate and repeated using blood from 5 different donors.

Another test deals with cAMP. The test can be described thus: Trial of α-MSH peptides on cAMP accumulation in C. albicans. Type of test: cell-based. The conditions noted are these: 10^−6M; for cAMP content of C. albicans: 3 minutes at 37° C., permeabilized yeast; for increase in cAMP compared with forskolin: equimolar. How it is done: The reaction was stopped after 3 minutes by the addition of ice cold ethanol. cAMP was measured in duplicate using a commercial enzyme immunoassay (EIA) kit (Amersham, United Kingdom) after extraction via the liquid-phase method according to manufacturer's instructions. The effect of forskolin (10^−6M) on C. albicans colony formation was determined using the same procedures as for α-MSH peptides.
In general terms: Cyclic AMP is a second messenger, typically raised through Gs and lowered through Gi signalling.

For another test, the system named is HIV-1. The following applies: acutely and chronically infected monocytes; cited from earlier work.
For test [3] the following is noted: vs α-MSH; cited from earlier work.

Consider “KPV (Ac-Lys-Pro-Val-NH2) [α-MSH (11-13)]”, for which the “S. aureus colony formation (CFU)” value with S. aureus (ATCC 29213) is “significantly decreased S. aureus colony forming units; also recorded: inhibited S. aureus colony formation”. For the same substance, the “urokinase-enhanced S. aureus colony formation” value in the test with S. aureus was “significantly inhibited this urokinase-enhancing effect; also recorded: significantly inhibited the enhancing effect of urokinase”. Also, the “relative potency in reducing C. albicans viability” value in test [1] (10^−6M) is “most effective”. In addition, in test [1], the “C. albicans colony forming units (CFU)” value is reported as “significantly decreased C. albicans colony forming units; also recorded: greatly reduced”. In addition, the “killing of C. albicans by human neutrophils” value in test [2] was “enhanced killing of C. albicans by human neutrophils”. Also, in the test on cAMP, the “cAMP content of C. albicans” value is “enhanced cAMP content in the yeast” and the “increase in cAMP compared with forskolin” value was “same order of magnitude as that induced by equimolar forskolin”.

With “ACTH (1-39): adrenocorticotropic hormone (1-39), melanocortin peptide (SYSMEHFRWGKPVGKKRRPVKVYPNGAEDESAEAFPLEF; Corticotropin; UniProt P01189 138-176, looked up) [reference compound]”, the “relative potency in reducing C. albicans viability” value in test [1] (10^−6M) is listed as “did not reduce C. albicans viability”. Besides, in test [1], the “reduction of C. albicans CFU at higher concentrations” value is reported as “ineffective”.

Consider “ACTH (18-39): ACTH fragment (18-39) (CLIP) [reference compound]”, for which, in test [1] (10^−6M), the “relative potency in reducing C. albicans viability” value is listed as “did not reduce C. albicans viability”. Moreover, the “reduction of C. albicans CFU at higher concentrations” value in test [1] is on record as “ineffective”.

On to SYSMEHFRWGKPV [α-MSH (1-13)], for which, in the test with S. aureus (ATCC 29213), the “S. aureus colony formation (CFU)” value is “significantly decreased S. aureus colony forming units; also recorded: inhibited S. aureus colony formation”. In addition, the “urokinase-enhanced S. aureus colony formation” value in the test on S. aureus is given as “significantly inhibited this urokinase-enhancing effect; also recorded: significantly inhibited the enhancing effect of urokinase”. The “C. albicans colony forming units (CFU)” value in test [1] is “significantly decreased C. albicans colony forming units; also recorded: greatly reduced”. Further, in test [2], the “killing of C. albicans by human neutrophils” value is on record as “enhanced killing of C. albicans by human neutrophils”. Also, in the test on cAMP, the “cAMP content of C. albicans” value was “enhanced cAMP content in the yeast” and the “increase in cAMP compared with forskolin” value was “same order of magnitude as that induced by equimolar forskolin”. In addition, the HIV-1 replication result in the test with HIV-1 was “inhibits HIV-1 replication in acutely and chronically infected monocytes”.

As to “NH2-Lys-Pro-Val-AcCys-CysAc-Val-Pro-Lys-NH2 [KPV dimer]”, the “S. aureus colony formation (CFU)” value with S. aureus (ATCC 29213) is “significantly decreased S. aureus colony forming units; also recorded: inhibited S. aureus colony formation”. The “effectiveness against microbes compared with α-MSH (11-13)” value in test [1] (S. aureus and C. albicans) was “at least as effective as α-MSH (11-13) against microbes”. For the same substance, the “C. albicans colony forming units (CFU)” value in test [1] is recorded as “significantly decreased C. albicans colony forming units; also recorded: inhibited C. albicans colony formation”.

On to [Nle^4,D-Phe^7]-α-MSH, for which the “potency in reducing fever relative to the parent peptide” value in test [3] is listed as “approximately 10 times”.

With MEHFRWG (Ac-MEHFRWG-NH2) [α-MSH (4-10)], the “inhibition of C. albicans CFU” value in test [1] (10^−6M) is recorded as “approximately 50%”.

Regarding “HFRWGKPV (Ac-HFRWGKPV-NH2) [α-MSH (6-13)]”, the “relative potency in reducing C. albicans viability” value in test [1] (10^−6M) is reported as “most effective”.
